Laboratory results: the supplement of paper PMC4862054

Assays:
Conditions in all cases: incubation time: 72 h
BT-474 = assay: drug sensitivity score (DSS), CellTiter-Glo (DSS (AUC-based score)); higher = stronger drug effect (viability inhibition or cytotoxicity); extreme values may be limits of the assay
In short: (§1)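 Breast cancer cell lines were seeded in 20 µl suspension into 384-well plates already holding compound and incubated for 72 h. Each compound was tested at 5 concentrations in 10-fold steps across its own 10,000-fold range. Plates were normalised to 0.1 % DMSO and a positive kill control after CellTox Green and then CellTiter-Glo readings. The area under the fitted dose-response curve served as the basis for the drug sensitivity score.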

BT-549 = assay: as above
In short: as §1

CAL-120 = assay: as above
In short: as §1

CAL-148 [1] = assay: as above
In short: as §1

CAL-51 [2] = assay: as above
In short: as §1

DU-4475 = assay: as above
In short: as §1

HCC1143 = assay: as above
In short: as §1

HCC1599 = assay: as above
In short: as §1

HCC1937 [3] = assay: as above
In short: as §1

Hs578T [4] = assay: as above
In short: as §1

MCF-10A = assay: as above
In short: as §1

MDA-MB-231 [5] = assay: as above
In short: as §1

MDA-MB-436 [6] = assay: as above
In short: as §1

MDA-MB-453 [7] = assay: as above
In short: as §1

MDA-MB-468 [8] = assay: as above
In short: as §1

MFM-223 [9] = assay: as above
In short: as §1

SK-BR-3 = assay: as above
In short: as §1

CAL-148 [10] = assay: drug sensitivity score (DSS), CellTox Green (DSS (AUC-based score)); higher = stronger drug effect (viability inhibition or cytotoxicity); extreme values may be limits of the assay
In short: as §1

CAL-51 [11] = assay: as above
In short: as §1

HCC1937 [12] = assay: as above
In short: as §1

HDQ-P1 = assay: as above
In short: as §1

Hs578T [13] = assay: as above
In short: as §1

MDA-MB-231 [14] = assay: as above
In short: as §1

MDA-MB-436 [15] = assay: as above
In short: as §1

MDA-MB-453 [16] = assay: as above
In short: as §1

MDA-MB-468 [17] = assay: as above
In short: as §1

MFM-223 [18] = assay: as above
In short: as §1

| SMILES | drug sensitivity score (BT-474) | drug sensitivity score (BT-549) | drug sensitivity score (CAL-120) | drug sensitivity score (CAL-148 [1]) | drug sensitivity score (CAL-51 [2]) | drug sensitivity score (DU-4475) | drug sensitivity score (HCC1143) | drug sensitivity score (HCC1599) | drug sensitivity score (HCC1937 [3]) | drug sensitivity score (Hs578T [4]) | drug sensitivity score (MCF-10A) | drug sensitivity score (MDA-MB-231 [5]) | drug sensitivity score (MDA-MB-436 [6]) | drug sensitivity score (MDA-MB-453 [7]) | drug sensitivity score (MDA-MB-468 [8]) | drug sensitivity score (MFM-223 [9]) | drug sensitivity score (SK-BR-3) | drug sensitivity score (CAL-148 [10]) | drug sensitivity score (CAL-51 [11]) | drug sensitivity score (HCC1937 [12]) | drug sensitivity score (HDQ-P1) | drug sensitivity score (Hs578T [13]) | drug sensitivity score (MDA-MB-231 [14]) | drug sensitivity score (MDA-MB-436 [15]) | drug sensitivity score (MDA-MB-453 [16]) | drug sensitivity score (MDA-MB-468 [17]) | drug sensitivity score (MFM-223 [18]) |
| --- | --- | --- | --- | --- | --- | --- | --- | --- | --- | --- | --- | --- | --- | --- | --- | --- | --- | --- | --- | --- | --- | --- | --- | --- | --- | --- | --- |
| Cc1cccc(-c2nn3c(c2-c2ccnc4ccc(C(N)=O)cc24)CCC3)n1 [Galunisertib] | 0 | 0 | 0 | 0 | 0.026 | 0 | 0 | 0 | 0 | 0 | 0 | 0 | 0 | 0 | 0 | 0 | 0 | 0 | 0 | 0 | 0 | 0 | 0 | 0.892 | 0 | 0 | 0 |
| CNC(=O)c1cc(Oc2ccc(NC(=O)Nc3ccc(Cl)c(C(F)(F)F)c3)cc2)ccn1 [Sorafenib] | 0 | 0 | 0 | 0 | 0 | 0 | 0 | 0 | 0 | 0 | 0 | 0 | 0 | 0 | 0 | 0 | 0 | 0 | 0 | 0 | 0 | 0 | 0 | 0 | 0 | 0 | 0 |
| C[C@]12O[C@H](C[C@]1(O)CO)n1c3ccccc3c3c4c(c5c6ccccc6n2c5c31)CNC4=O [Lestaurtinib] | 3.87 | 7.26 | 7.69 | 0 | 0.729 | 8.11 | 2.04 | 7.24 | 2.31 | 3.6 | 8.64 | 2.14 | 3.31 | 5.26 | 11.8 | 4.3 | 8.99 | 0 | 0 | 0 | 0 | 4.21 | 0.0124 | 8.14 | 0 | 0 | 0 |
| Nc1ccccc1NC(=O)c1ccc(CNc2nccc(-c3cccnc3)n2)cc1 [Mocetinostat] | 6.06 | 8.43 | 6.33 | 7.02 | 8.93 | 9 | 5.67 | 5.88 | 6.31 | 5.95 | 1.13 | 6.07 | 5.31 | 9.7 | 8.18 | 5.07 | 8.95 | 2.32 | 8.87 | 0.396 | 14.5 | 7.44 | 8.8 | 10.1 | 0 | 10.9 | 0 |
| COc1ccc(-c2cc3c(C)nc(N)nc3n([C@H]3CC[C@H](OCCO)CC3)c2=O)cn1 | 16.4 | 18.7 | 17.1 | 17.1 | 22.6 | 12.4 | 17.2 | 9.17 | 15.1 | 18 | 18.3 | 18.4 | 14.4 | 21.9 | 18.8 | 17 | 22.1 | 12.3 | 12.5 | 1.39 | 6.58 | 2 | 14.1 | 0 | 0 | 0 | 0 |
| O=C1c2c(O)ccc(O)c2C(=O)c2c(NCCNCCO)ccc(NCCNCCO)c21 [Mitoxantrone] | 0 | 0 | 0 | 3.82 | 2.13 | 2.92 | 0.675 | 0 | 0 | 0 | 0 | 0 | 5.91 | 0 | 0 | 0 | 0 | 3.55 | 3.21 | 0 | 0 | 0 | 0 | 0 | 0 | 0 | 0 |
| COc1cc(CCc2cc(NC(=O)c3ccc(N4CC(C)NC(C)C4)cc3)n[nH]2)cc(OC)c1 (stereo unspecified) [AZD4547] | 0 | 0.487 | 3.61 | 0 | 0 | 0 | 0 | 0 | 0 | 0.967 | 1.73 | 0 | 0 | 0.805 | 0 | 12.2 | 0 | 0.783 | 0 | 0 | 2.76 | 0 | 0 | 0 | 0 | 0 | 0 |
| CS(=O)(=O)N1CCN(Cc2cc3nc(-c4cccc5[nH]ncc45)nc(N4CCOCC4)c3s2)CC1 [Pictilisib] | 6.27 | 9.15 | 7.47 | 8.61 | 10.1 | 1.25 | 7.14 | 0 | 5.69 | 7.69 | 13.3 | 6.01 | 5.3 | 13.1 | 6.39 | 7.5 | 14.2 | 9.53 | 4.02 | 0 | 0 | 0 | 0 | 0 | 0 | 0 | 4.88 |
| Cc1nc(Nc2ncc(C(=O)Nc3c(C)cccc3Cl)s2)cc(N2CCN(CCO)CC2)n1 [Dasatinib] | 11.4 | 7.26 | 8.55 | 0 | 11.8 | 0 | 6.57 | 0 | 6.2 | 8.38 | 15.9 | 14.2 | 0.821 | 0 | 4.01 | 0 | 0 | 0 | 6.25 | 0 | 0 | 6.23 | 4.62 | 0 | 0 | 0 | 0 |
| O=C(NC[C@H](O)CO)c1ccncc1Nc1ccc(I)cc1F [Pimasertib] | 7.07 | 0.686 | 5.16 | 3.19 | 5.03 | 32.3 | 0 | 0 | 2.69 | 2.79 | 21.9 | 6.34 | 0.481 | 0 | 0 | 1.68 | 2.74 | 0 | 0 | 0 | 0 | 0 | 12.2 | 0 | 0 | 0 | 0 |
| CC[C@@]1(O)C(=O)OCc2c1cc1n(c2=O)Cc2cc3c(CN(C)C)c(O)ccc3nc2-1 [Topotecan] | 3.82 | 10.8 | 5.11 | 18.7 | 11 | 14.6 | 9.67 | 18.3 | 6.32 | 1.55 | 4.97 | 4.13 | 13.6 | 5.74 | 20.8 | 0 | 14.1 | 24.6 | 19.5 | 3.78 | 0.486 | 0 | 10.2 | 8.04 | 0 | 8.87 | 2.66 |
| Nc1cccc2c1CN(C1CCC(=O)NC1=O)C2=O (stereo unspecified) [Lenalidomide] | 0 | 0 | 2.82e-05 | 0 | 0 | 0 | 0 | 0 | 0 | 0 | 0 | 0 | 0 | 0 | 0 | 0 | 0 | 1.27 | 0 | 0 | 0 | 0 | 0 | 0 | 0 | 0 | 0 |
| CCCCC/C=C/C=C1/C(=O)C=C[C@@H]1C/C=C\CCCC(=O)O [15D-PGJ2] | 0 | 0 | 0 | 0 | 0 | 0 | 0 | 0 | 0 | 0 | 0 | 0 | 0 | 0 | 0 | 0 | 0 | 0 | 0 | 0 | 0 | 0 | 0 | 0 | 0 | 0 | 0 |
